The source of these data is ChEMBL document CHEMBL1150976, “The selectivity of protein kinase inhibitors: a further update” (Biochem J, 2007).

Test [1] has as its target T1, 3-phosphoinositide-dependent protein kinase 1 (Homo sapiens) (UniProt O15530).
T1 sequence (whole entry): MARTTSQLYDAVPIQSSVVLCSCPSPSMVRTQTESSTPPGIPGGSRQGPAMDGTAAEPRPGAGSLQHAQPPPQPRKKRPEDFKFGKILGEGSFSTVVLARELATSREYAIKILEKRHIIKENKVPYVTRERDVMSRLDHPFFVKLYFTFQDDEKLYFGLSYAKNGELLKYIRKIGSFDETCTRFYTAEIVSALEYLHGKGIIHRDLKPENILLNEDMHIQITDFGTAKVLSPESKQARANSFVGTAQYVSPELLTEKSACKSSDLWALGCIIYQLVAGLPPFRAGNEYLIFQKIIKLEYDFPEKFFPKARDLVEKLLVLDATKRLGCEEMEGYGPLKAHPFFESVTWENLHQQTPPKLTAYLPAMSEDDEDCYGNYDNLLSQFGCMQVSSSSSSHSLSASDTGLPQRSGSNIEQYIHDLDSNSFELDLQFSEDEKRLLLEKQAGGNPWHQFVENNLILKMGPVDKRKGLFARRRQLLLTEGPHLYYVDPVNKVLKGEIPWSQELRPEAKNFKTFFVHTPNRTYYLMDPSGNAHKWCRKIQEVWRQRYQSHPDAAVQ
The test is described as follows: Percentage PDK1 activity remaining in the presence of 0.01uM inhibitor. As to conditions: filed as antagonist.

Test [2] deals with T2, Serine/threonine-protein kinase Nek2 (Homo sapiens) (UniProt P51955).
T2 sequence (whole entry): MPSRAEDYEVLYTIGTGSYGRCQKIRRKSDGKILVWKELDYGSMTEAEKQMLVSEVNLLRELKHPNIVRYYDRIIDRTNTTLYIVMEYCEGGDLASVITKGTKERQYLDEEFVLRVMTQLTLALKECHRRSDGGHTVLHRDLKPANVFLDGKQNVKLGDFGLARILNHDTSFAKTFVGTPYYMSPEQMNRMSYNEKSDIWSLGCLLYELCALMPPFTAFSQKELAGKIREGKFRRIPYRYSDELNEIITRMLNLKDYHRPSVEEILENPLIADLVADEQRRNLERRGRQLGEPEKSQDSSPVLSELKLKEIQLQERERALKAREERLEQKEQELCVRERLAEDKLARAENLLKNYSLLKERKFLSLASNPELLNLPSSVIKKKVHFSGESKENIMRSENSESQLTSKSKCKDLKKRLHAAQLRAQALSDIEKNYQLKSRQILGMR
Description: Percentage NEK2a activity remaining in the presence of 25uM inhibitor.

Test [3] concerns the target Mitogen-activated protein kinase 1 (Homo sapiens) (UniProt P28482). Description: Percentage ERK2 activity remaining in the presence of 25uM inhibitor.
The target of test [4] is Ribosomal protein S6 kinase alpha-3 (Homo sapiens) (UniProt P51812). Description: Percentage RSK2 activity remaining in the presence of 25uM inhibitor.
The target in test [5] is RAC-alpha serine/threonine-protein kinase (Homo sapiens) (UniProt P31749). The test is described as follows: Percentage PKBalpha activity remaining in the presence of 25uM inhibitor.
The target of test [6] is Homeodomain-interacting protein kinase 3 (Homo sapiens) (UniProt Q9H422). Description: Percentage HIPK3 activity remaining in the presence of 25uM inhibitor.
Test [7] deals with Dual specificity tyrosine-phosphorylation-regulated kinase 1A (Homo sapiens) (UniProt Q13627). The test is described as follows: Percentage DYRK1A activity remaining in the presence of 25uM inhibitor.
The target in test [8] is Tyrosine-protein kinase CSK (Homo sapiens, UniProt P41240). The test is described as follows: Percentage CSK activity remaining in the presence of 25uM inhibitor.
Test [9] deals with T3, Inhibitor of nuclear factor kappa-B kinase subunit beta (Homo sapiens) (UniProt O14920).
T3 sequence (whole entry): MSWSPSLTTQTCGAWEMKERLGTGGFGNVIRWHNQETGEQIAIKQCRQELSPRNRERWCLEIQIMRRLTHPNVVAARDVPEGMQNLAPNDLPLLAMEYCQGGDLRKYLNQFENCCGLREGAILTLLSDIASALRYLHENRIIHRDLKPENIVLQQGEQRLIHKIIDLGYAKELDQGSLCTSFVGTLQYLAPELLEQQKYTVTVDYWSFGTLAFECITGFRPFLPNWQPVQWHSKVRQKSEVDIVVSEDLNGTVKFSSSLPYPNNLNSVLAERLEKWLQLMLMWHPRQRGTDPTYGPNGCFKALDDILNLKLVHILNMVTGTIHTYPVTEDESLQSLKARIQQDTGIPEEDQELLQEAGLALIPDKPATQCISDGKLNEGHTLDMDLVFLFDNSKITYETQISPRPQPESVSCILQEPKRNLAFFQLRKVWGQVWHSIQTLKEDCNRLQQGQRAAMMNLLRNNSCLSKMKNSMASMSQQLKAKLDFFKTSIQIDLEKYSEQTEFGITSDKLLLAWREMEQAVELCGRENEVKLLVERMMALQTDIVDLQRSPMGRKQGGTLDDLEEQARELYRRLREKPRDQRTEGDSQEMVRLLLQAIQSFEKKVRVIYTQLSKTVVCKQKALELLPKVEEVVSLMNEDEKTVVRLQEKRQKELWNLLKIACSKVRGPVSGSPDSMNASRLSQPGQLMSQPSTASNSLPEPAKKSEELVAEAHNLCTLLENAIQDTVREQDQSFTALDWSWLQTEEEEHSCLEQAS
Description: Percentage IKK-beta activity remaining in the presence of 25uM inhibitor.

For test [10], the target named is RAC-beta serine/threonine-protein kinase (Homo sapiens) (UniProt P31751). Description: Percentage PKBbeta activity remaining in the presence of 25uM inhibitor.
Test [11] concerns the target T4, Aurora kinase C (Homo sapiens) (UniProt Q9UQB9).
T4 sequence (whole entry): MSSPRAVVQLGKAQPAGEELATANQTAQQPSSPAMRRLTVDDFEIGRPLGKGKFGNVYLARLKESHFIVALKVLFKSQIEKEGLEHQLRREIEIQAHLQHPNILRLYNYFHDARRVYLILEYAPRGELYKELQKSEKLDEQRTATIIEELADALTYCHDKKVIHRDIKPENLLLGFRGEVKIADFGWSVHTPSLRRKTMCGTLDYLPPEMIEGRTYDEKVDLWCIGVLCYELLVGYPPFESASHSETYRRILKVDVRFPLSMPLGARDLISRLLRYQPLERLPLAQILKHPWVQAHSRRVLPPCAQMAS
The test is described as follows: Percentage Aurora C activity remaining in the presence of 25uM inhibitor.

Each structure is given as a SMILES string.

Sequence of Ribosomal protein S6 kinase alpha-3 (Homo sapiens) (P51812 whole entry): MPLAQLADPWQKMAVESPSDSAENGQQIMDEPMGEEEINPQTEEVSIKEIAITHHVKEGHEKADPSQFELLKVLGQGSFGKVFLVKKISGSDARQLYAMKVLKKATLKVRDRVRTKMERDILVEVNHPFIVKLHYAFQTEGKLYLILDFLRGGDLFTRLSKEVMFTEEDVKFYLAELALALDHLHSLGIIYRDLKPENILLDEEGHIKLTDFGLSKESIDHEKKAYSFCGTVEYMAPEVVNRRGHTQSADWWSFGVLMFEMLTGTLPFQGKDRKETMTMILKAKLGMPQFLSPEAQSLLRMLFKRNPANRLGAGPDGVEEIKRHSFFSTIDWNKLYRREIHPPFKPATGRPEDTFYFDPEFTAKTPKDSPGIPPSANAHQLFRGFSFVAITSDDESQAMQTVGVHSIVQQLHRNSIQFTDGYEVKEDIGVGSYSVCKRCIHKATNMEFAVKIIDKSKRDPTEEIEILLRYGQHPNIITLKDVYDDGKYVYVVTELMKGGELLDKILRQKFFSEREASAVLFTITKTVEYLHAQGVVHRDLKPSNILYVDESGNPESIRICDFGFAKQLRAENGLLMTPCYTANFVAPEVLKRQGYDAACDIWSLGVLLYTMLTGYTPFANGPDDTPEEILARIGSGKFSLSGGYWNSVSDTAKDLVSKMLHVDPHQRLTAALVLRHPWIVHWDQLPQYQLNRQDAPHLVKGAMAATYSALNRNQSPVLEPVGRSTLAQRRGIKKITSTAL
Sequence of RAC-beta serine/threonine-protein kinase (Homo sapiens) (P31751 whole entry): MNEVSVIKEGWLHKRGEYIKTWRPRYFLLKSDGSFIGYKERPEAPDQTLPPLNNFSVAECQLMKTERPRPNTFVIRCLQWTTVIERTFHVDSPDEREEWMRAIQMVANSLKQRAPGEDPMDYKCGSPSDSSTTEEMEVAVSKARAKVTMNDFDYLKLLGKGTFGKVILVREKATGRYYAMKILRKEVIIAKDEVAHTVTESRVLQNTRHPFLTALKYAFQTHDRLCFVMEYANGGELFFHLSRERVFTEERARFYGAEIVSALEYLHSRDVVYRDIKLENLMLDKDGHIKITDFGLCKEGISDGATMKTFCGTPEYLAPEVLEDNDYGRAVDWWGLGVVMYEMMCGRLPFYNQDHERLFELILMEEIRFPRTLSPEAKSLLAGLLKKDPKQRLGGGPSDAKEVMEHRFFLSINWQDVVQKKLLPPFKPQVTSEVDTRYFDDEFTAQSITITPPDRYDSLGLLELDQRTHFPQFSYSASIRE
Sequence of Homeodomain-interacting protein kinase 3 (Homo sapiens) (Q9H422 whole entry, looked up): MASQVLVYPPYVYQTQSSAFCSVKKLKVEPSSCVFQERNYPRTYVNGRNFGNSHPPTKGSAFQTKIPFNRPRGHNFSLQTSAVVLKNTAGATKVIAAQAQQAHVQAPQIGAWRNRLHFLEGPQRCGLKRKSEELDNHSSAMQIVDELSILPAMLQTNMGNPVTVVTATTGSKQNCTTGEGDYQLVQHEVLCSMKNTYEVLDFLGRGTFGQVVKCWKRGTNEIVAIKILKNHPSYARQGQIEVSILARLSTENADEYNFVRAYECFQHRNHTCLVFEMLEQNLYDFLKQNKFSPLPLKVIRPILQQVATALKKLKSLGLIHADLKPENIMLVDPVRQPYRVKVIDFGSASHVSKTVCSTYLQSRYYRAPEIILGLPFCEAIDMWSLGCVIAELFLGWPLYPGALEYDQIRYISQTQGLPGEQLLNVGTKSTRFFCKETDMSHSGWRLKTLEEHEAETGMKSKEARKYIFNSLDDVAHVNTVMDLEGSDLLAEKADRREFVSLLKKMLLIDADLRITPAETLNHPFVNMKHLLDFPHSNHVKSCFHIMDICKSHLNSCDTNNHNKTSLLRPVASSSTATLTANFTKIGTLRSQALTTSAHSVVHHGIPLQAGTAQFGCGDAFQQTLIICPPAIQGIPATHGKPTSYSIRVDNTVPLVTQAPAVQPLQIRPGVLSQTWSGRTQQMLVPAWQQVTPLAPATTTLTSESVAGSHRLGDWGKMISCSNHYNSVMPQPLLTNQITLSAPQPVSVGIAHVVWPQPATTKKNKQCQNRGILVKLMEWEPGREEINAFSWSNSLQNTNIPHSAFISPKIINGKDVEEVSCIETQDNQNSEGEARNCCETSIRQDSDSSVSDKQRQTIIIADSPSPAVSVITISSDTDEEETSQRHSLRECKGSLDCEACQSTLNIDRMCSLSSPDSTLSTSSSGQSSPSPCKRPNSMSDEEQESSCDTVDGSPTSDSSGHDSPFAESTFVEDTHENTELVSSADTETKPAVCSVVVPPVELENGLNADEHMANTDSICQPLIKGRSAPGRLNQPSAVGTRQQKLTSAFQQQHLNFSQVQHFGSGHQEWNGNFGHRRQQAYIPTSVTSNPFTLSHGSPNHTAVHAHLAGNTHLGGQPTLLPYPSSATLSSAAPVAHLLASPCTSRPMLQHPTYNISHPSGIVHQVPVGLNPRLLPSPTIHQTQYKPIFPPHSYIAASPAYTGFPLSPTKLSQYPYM
Sequence of RAC-alpha serine/threonine-protein kinase (Homo sapiens) (P31749 whole entry): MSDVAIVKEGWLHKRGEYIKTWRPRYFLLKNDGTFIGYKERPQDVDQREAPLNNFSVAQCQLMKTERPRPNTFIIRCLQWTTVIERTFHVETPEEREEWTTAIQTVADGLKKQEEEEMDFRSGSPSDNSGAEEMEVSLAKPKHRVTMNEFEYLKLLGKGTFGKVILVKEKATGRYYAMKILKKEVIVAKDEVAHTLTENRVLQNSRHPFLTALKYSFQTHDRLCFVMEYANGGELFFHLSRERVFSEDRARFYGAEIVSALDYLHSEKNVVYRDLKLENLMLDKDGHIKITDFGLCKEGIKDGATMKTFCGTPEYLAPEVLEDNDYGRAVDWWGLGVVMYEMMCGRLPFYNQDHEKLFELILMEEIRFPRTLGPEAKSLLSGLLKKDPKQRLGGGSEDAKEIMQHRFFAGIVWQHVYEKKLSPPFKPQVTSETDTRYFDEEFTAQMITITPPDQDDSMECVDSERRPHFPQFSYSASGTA
Sequence of Mitogen-activated protein kinase 1 (Homo sapiens) (P28482 whole entry): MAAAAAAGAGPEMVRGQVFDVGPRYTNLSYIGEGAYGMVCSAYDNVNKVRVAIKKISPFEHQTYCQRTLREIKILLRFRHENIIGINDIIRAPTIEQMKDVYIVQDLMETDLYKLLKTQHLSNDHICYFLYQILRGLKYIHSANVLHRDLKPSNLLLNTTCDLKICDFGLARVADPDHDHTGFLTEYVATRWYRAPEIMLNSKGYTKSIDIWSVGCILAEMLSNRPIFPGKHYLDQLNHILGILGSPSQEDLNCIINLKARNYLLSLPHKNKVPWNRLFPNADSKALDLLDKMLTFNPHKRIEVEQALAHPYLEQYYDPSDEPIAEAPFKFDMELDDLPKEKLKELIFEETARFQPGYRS
Sequence of Tyrosine-protein kinase CSK (P41240 2-450 limits assumed): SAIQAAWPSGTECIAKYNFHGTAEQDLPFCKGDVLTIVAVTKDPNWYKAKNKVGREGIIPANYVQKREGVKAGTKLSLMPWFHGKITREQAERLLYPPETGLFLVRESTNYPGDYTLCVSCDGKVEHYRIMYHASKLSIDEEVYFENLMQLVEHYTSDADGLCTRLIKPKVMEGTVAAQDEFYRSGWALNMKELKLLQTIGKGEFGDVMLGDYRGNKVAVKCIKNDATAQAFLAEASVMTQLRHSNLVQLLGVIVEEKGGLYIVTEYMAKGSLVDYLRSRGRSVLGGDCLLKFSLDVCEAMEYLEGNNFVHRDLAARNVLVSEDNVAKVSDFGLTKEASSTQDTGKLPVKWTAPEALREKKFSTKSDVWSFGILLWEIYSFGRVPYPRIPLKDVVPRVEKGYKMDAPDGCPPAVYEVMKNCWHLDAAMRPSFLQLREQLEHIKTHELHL

For `O=C(NCCCNc1nc(Nc2cccc(NC(=O)N3CCCC3)c2)ncc1I)c1cccs1`, in test [1], the Activity is 30%.

With `COc1cc(OC)c(/C=C2/C(=O)Nc3ccccc32)c(OC)c1`, the Activity amounted to 75% in [2]; 93% in test [3]; 89% in test [4]; 94% in test [5]; 95% in test [6]; 73% in test [7]. Also, the Activity stood at 81% in test [8], 90% in test [9], 90% in test [10] and 94% in [11].

As to `CN[C@@H]1C[C@H]2O[C@@](C)([C@@H]1OC)n1c3ccccc3c3c4c(c5c6ccccc6n2c5c31)C(=O)N[C@H]4O` (stereo in doubt), the Activity in [1] was 2%.

Regarding `NCCNS(=O)(=O)c1ccc(Cl)c2ccncc12`, the Activity in [2] is 85%; in test [3], 100%; in test [4], 63%; in test [5], 54%; in test [6] it was 86%; in test [7] (filed as antagonist), 39%. Besides, the Activity is 79% in test [8], 87% in test [9], 89% in test [10] and 95% in [11].
